In EP0711275B1, “(THIO)CARBIMIDINIC ACID DERIVATIVES AND MEDICAMENTS CONTAINING THE SAME” (BOEHRINGER MANNHEIM GMBH, priority 1993, dated 1995):
≈ marks a conversion by molar mass, not a printed value. Where two headings read alike, the source gives them in different places. Values belong to the molecule of their own block, whether it stands above or below them.

Key:
[1] = tested on: HIV-1 (Isolat HTLV III B); assay: MT2/MTT test system (antiviral activity in HIV-1-infected MT2 cells); format: cell-based; details: read-out: IC50-Werte MT2
From the text: (§1) Die antivirale Wirksamkeit einiger ausgewählter Substanzen wurde sowohl in vivo als auch in vitro (Hemmung der reversen Transkriptase RT) untersucht. a) MT2/MTT-Testsystem (in vivo) MT2-Zellen werden mit HIV-1 (Isolat HTLV III B) infiziert. Nach 7 Tagen Inkubation erfolgt der MTT-Test, der die Vitalität der Zellen bestimmt. Die Vitalität der Zellen korreliert mit dem Ausmaß der Virusproduktion. In der folgenden Tabelle werden IC50-Werte angegeben, d. h. diejenige Konzentration der Substanzen, die eine 50%-ige Inhibierung bewirken. b) Hemmung der RT (in vitro) In einem nicht radioaktiven Mikrotiterplattentest wird das Ausmaß der Inhibierung der Aktivität der RT bestimmt. Die Menge an eingebauten Nukleotiden in die zu synthetisierende DNA wird photometrisch bestimmt.

[2] = target: T1, reversen Transkriptase RT (Human immunodeficiency virus type 1 group M subtype B, UniProt P04585); assay: Inhibition of RT, non-radioactive microtitre plate test; format: biochemical; details: inhibition of RT activity; incorporated nucleotides determined photometrically; read-out: IC50-Werte RT (converted)
T1 construct: Hemmung der reversen Transkriptase RT
From the text: as §1

[3] = Human immunodeficiency virus 1, 168 h, MT2-Zellen infected with HIV-1 (Isolat HTLV III B), 7 days incubation, MTT test of cell vitality

SMILES: N=C(NC(=S)Nc1ccc(Cl)cc1)SC1CCCCC1 [Beispiel 2f, N-(4-Chlorphenylaminothiocarbonyl)thiocarbamidinsäure-cyclohexylester]
IC50 [1, 3]: < 3 µg/mL
IC50 [2]: 314 nM

SMILES: CC(C)CC(C)SC(=N)NC(=S)Nc1cccc(F)c1 (stereo not shown) [Beispiel 2b, N-(3-Fluorphenylaminothiocarbonyl)thiocarbamidinsäure 2-(4-methylpentyl)ester]
IC50 [1, 3]: 3.3 µg/mL (≈ 10.5 µM)
IC50 [2]: 3190 nM

SMILES: CC(C)CC(C)SC(=N)NC(=S)Nc1ccc(Cl)cc1 (stereo not shown) [Beispiel 1, N-(4-Chlorphenylaminothiocarbonyl)thiocarbamidinsäure 2-(4-methylpentyl)ester]
IC50 [1, 3]: 0.6 µg/mL (≈ 1.82 µM)
IC50 [2]: 1820 nM

IC50 [2]: 2800 nM
SMILES: N=C(NC(=S)Nc1ccc(Cl)cc1)Sc1ccccc1 [Beispiel 2n, N-(4-Chlorphenylaminothiocarbonyl)thiocarbamidinsäure-phenylester]

SMILES: N=C(NC(=S)Nc1ccc(Cl)cc1)SCc1ccccc1 [Beispiel 2e, N-(4-Chlorphenylaminothiocarbonyl)thiocarbamidinsäure-benzylester]
IC50 [1, 3]: < 3 µg/mL
IC50 [2]: 7290 nM

SMILES: N=C(NC(=S)Nc1ccc(Cl)cc1)SCc1cccc(Cl)c1 [Beispiel 2g, N-(4-Chlorphenylaminothiocarbonyl)thiocarbamidinsäure-3-chlorbenzylester]
IC50 ([1]; Human immunodeficiency virus 1, MT2, 168 h): < 3 µg/mL
IC50 [2]: 891 nM

SMILES: CCCCSC(=N)NC(=S)Nc1ccc(Cl)cc1 [Beispiel 2j, N-(4-Chlorphenylaminothiocarbonyl)thiocarbamidinsäure-butylester]
IC50 [1, 3]: < 3 µg/mL
IC50 [2]: 2520 nM
